From patent US20040220085A1, “Compositions for nucleic acid delivery” (priority 2003, published 2004)

What was measured:
Assay type in all cases: cell-based, human
[1] = test system: JJ5 breast cancer cells; assay: Growth inhibition assay against JJ5 breast cancer cells; details: 4 days culture
Experimental: JJ5 breast cancer cells (prepared from BCBM JJ5) expressing approximately 10^6 epidermal growth factor receptors/cell were incubated with EGF-^111In-labeled transferrin composition, unlabeled hEGF or ^111In-oxine, centrifuged to remove free ligand, then assayed and seeded (10^6 cells/dish) into 35 mm culture dishes. Growth medium was added and the cells were cultured at 37° C./5% CO^2 for 4 days. The cells were then recovered by trypsinization and counted in a hemocytometer. Control dishes contained cells cultured in growth medium containing ^111In-DTPA or growth medium alone.

[2] = test system: JJ5 breast cancer cells; assay: Cytotoxicity (colony-forming) assay against JJ5 breast cancer cells; details: 14 days
Experimental: JJ5 breast cancer cells were incubated with increasing amounts EGF-^111In-labeled transferrin composition or ^111In-oxine, centrifuged to remove free ligand, assayed and then seeded into 50 mm culture dishes. The number of cells seeded was varied from 3×10^4 to 3×10^6cells to obtain approximately 400 viable colonies/dish taking into account the plating efficiency and the expected level of cytotoxicity. Control dishes contained JJ5 breast cancer cells which were incubated with normal saline. Growth medium was added and the cells were cultured at 37° C./5% CO^2 for 14 days. The growth medium was removed and the colonies were stained with methylene blue (1% in a 1:1 mixture of ethanol and water) then washed twice. The number of colonies per dish was counted using a manual colony counter (Manostat Corp). The plating efficiency was calculated by dividing the number of colonies observed by the number of cells seeded in each dish. The surviving fraction at increasing amounts of EGF-^111In-labeled transferrin composition or ^111In-oxine was calculated by dividing the plating efficiency for dishes containing treated cells with that observed for control dishes with normal saline.

[3] = test system: JJ5 Breast Cancer cells (EGFR); assay: Binding of EGF-111In-labeled transferrin composition to JJ5 breast cancer cells
Experimental: For the normal breast cell line HBL-100, 8000 EGFR/cell has been reported. The expression of EGFR in breast cancer cell lines has a reported range of 800 EGFR/cell for MCF-7 cells to 10^6 EGFR/cell for MDA-MB-468 cells. […] Utilizing the Auger electron emitter ^111In was used in the initial experiments to illustrate the utility of the invention using EGF-^111In-labeled transferrin compositions. The EGF-^111In-labeled transferrin (0.25-80 ng) was incubated with 1.5×10^6 cells/dish JJ5 Breast Cancer (prepared from BCBM JJ5) cells in 1 mL of 0.1% human serum albumin in 35 mm multiwell culture dishes at 37° C. for 30 minutes. The cells were transferred to a centrifuge tube and centrifuged. The cell pellet was separated from the supernatant and counted in a g-scintillation counter to determine bound (B) and free (F) radioactivity. Non-specific binding was determined by conducting the assay in 100 nM hEGF. The kinetics of binding was determined by incubating 1 ng of EGF-^111In-labeled transferrin composition with 3×10^6 JJ5 Breast Cancer cells at 37° C. and determining the proportion of radioactivity bound to the cells at various times up to 24 hours. Internalized fraction was measured by determining the proportion of radioactivity which could not be displaced from the cell surface by 100 nM hEGF. Cell-associated binding (surface-binding and intracellular accumulation) was expressed as a percentage of medium radioactivity bound per mg of cell study protein.

| Compound | growth inhibition of the JJ5 cells ([1]; 3.5 pCi/cell) [%] | cell killing ([2]; <6 pCi/cell) | growth inhibition of the JJ5 cells compared to the medium control ([1]; 3.4 pCi/cell) [%] | reduction in cell survival for JJ5 cells ([2]; 8 pCi/cell) [%] | internalization by cancer cells ([3]; JJ5 cells) | number of binding sites ([3]; JJ5 cells) | kinetics of binding to the breast cancer cells ([3]; JJ5 cells, 37° C.) | time retained by the breast cancer cells ([3]; JJ5 cells, 37° C.) | affinity constant for binding to JJ5 cells ([3]; JJ5 cells, 37° C., 30 minutes) [L/mol] | 111In radioactivity lost from the cells in vitro ([3]; over a 24 hour period at 37° C.) [%] |
| --- | --- | --- | --- | --- | --- | --- | --- | --- | --- | --- |
| [In+3].[O-]c1cccc2cccnc12.[O-]c1cccc2cccnc12.[O-]c1cccc2cccnc12 [^111In-oxine, reference compound] | 91 | greater than 99% |  |  |  |  |  |  |  |  |
| EGF-^111In-labeled transferrin composition: human EGF linked to transferrin radiolabeled with the Auger electron emitter 111In at the iron-binding sites |  |  | 83 | 99 | rapidly internalized | 2.7×10^6 | rapidly bound | at least 24 hours | 8e+08 | < 8 |
